Assay results published in patent US6403554B2, “Polyunsaturated fatty acid derivatives and their use” (Ardenia Investments Ltd., priority 1998, dated 2002).
“Also recorded” adds a separate entry of the source.

What was measured:
[1] = tested on: antibody-forming cells (AFC) in the spleen; test: Influence of human AFP/compound complex and compound alone on humoral immune response, C57B1/6 male mice; type: in vivo; details: compound alone; for relative amount of AFC / total AFC amount: 5th day
Protocol: The influence of complexes of AFP with one of the title compounds 1-4, 1a-4a, 5-20 as well as their basic components on humoral immune response was estimated by counting the quantity of antibody-forming cells (AFC) in the mice spleen.
0.15 ml of AFP/Compound 3 complex was administered intravenously to 6 mice males of C57B1/6 line (weight 18-22 g) in the dose of […] of AFP and 45.5 μg of compound 3 per capita. Simultaneously suspension of 5·10^7 sheep erythrocytes was injected intraperitoneally (0.2 ml per capita). In the group with compound 3 mice were injected intravenously by one in the dose of 45.5 μg. Animals of group with AFP received 9 μg of AFP. Mice of control group were injected intravenously with equal volume of saline. Complex AFP/Compound 3 effect on humoral immune response was analyzed by counting the quantity of AFC in the spleen according to Cunningham (per 10^6 spleen cells and per spleen).
0.15 ml of AFP/Compound 2a complex (1:100) was administered intravenously to 6 mice males of C57B1/6 line (weight 18-22 g) in the dose of 9 μg of AFP and 45.5 μg of compound 2a per capita. Simultaneously, a suspension of 5·10^7 sheep erythrocytes was injected intraperitoneally (0.2 ml per capita). In the group with compound 2a mice were injected intravenously by one in the dose of 45.5 μg. Animals of group with AFP received 9 μg of AFP. Mice in the control group were injected intravenously with an equal volume of saline. The effect of the AFP/Compound 2a complex on humoral immune response was analyzed by counting the quantity of AFC in the spleen according to Cunningham (per 10^6 spleen cells and per spleen).
(§1) 0.15 ml of AFP/Compound 10 complex (1:200) was administered intravenously to 6 male mice of C57B1/6 line (weight 18-22 g) in the dose of 9 μg of AFP and 91 μg of compound 10 per capita. Simultaneously, a suspension of 5·10^7 sheep erythrocytes was injected intraperitoneally (0.2 ml per capita). In the group receiving compound 10 mice were injected intravenously by one in the dose of 91 μg. Animals in the group with AFP received 9 μg of AFP. Micein the control group were injected intravenously with an equal volume of saline. The effect of the AFP/Compound 10 complex on humoral immune response was analyzed by counting the quantity of AFC in the spleen according to Cunningham (per 10^6 spleen cells and per spleen).
as §1, with “AFP/Compound 14” for “AFP/Compound 10”, “compound 14” for “compound 10”, “group with” for “group receiving”, “Animals of” for “Animals in the”, “AFP. Mice in” for “AFP. Micein”

[2] = tested on: antibody-forming cells (AFC) in the spleen; test: Influence of compound on humoral immune response to sheep erythrocytes, C57B1/6 female mice (AFC in spleen, hemagglutinins); type: in vivo; details: for Amount of antibody-forming cells per 10^6 spleen cells / Amount of antibody-forming cells per spleen / Effect on relative amount of AFC (per 10^6 spleen cells) / Effect on total AFC amount (per spleen) / Effect on hemagglutinin titers / Spleen index / Amount of hemagglutinins: i.v.; for Amount of antibody-forming cells per 10^6 spleen cells / Amount of antibody-forming cells per spleen / Effect on relative amount of AFC (per 10^6 spleen cells) / Effect on total AFC amount (per spleen): 5th day; for Amount of antibody-forming cells per 10^6 spleen cells / Amount of antibody-forming cells per spleen: M ± SEM; for Effect on relative amount of AFC (per 10^6 spleen cells) / Effect on total AFC amount (per spleen) / Effect on hemagglutinin titers: vs control; for Spleen index: with SRBC i.p.; for Amount of hemagglutinins: serum
Protocol: The increase was calculated as compared with the amount of cells in the animals immunised only with sheep erythrocytes.
0.15 ml of compound 10 was administered intravenously to 6 mice females of CS7B1/6 line (weight 18-22 g) in doses of 45.5, 91 and 136.5 μg of compound 10 per capita for each testing group according to the dose. Simultaneously, a suspension of 5·10^7 sheep erythrocytes was injected intraperitoneally (0.2 ml per capita). Mice in the control group were injected intravenously with equal volume of saline. The effects of compound 10 on humoral immune response were analyzed both by counting the quantity of AFC in the spleen according to Cunningham (per 10^6 spleen cells and per spleen) and estimating the titers of hemagglutining antibodies in serum of the animals (Cunningham A. J., Nature, 1965, Vol.207, No 5001. P.1106-1107), while the titers of hemagglutinating antibodies were evaluated according to litterature (Evans J. et al., Cell, 1974; Vol 3., p.153-158, Feizi T., Menger E., Transfusion, 1970, Vol. 10, p.33-35,).
(§2) 0.15 ml of compound 11 was administered intravenously to 6 female mice of the C57B1/6 line (weight 18-22 g) in doses of 45.5, 91 and 136.5 μg of compound 11 per capita for each testing group according to the dose. Simultaneously, a suspension of 5·10^7 sheep erytrocytes was injected intraperitoneally (0.2 ml per capita). Mice in the control group were injected intravenously with an equal volume of saline. The effects of compound 11 on humoral immune response was analysed both by counting the quantity of AFC in the spleen according to Cunningham (per 10^6 spleen cells and per spleen) and estimating the titers of hemagglutining antibodies in serum of the animals.
as §2, with “12” for “11”, “erythrocytes” for “erytrocytes”, “analyzed” for “analysed”
as §2, with “compound 8” for “compound 11”, “sheep erythrocytes” for “sheep erytrocytes”, “Mice of” for “Mice in”, “response were analyzed” for “response was analysed”
0.15 ml of compound 3 was administered intravenously to 6 female mice of the C57B1/6 line (weight 18-22 g) in doses of 45.5, 91 and 136.5 μg of compound 3 per capita for each testing group according to the dose. Simultaneously, a suspension of 5·10^7 sheep erytrocytes was injected intraperitoneally (0.2 ml per capita). Mice of the control group were injected intravenously with equal volume of saline.

SMILES | relative amount of AFC ([1]; 91 μg/mouse i.v.) | total AFC amount ([1]; 91 μg/mouse i.v.) | Amount of antibody-forming cells per 10^6 spleen cells ([2]; 45.5 μg/mouse) | Amount of antibody-forming cells per spleen ([2]; 45.5 μg/mouse) | Effect on relative amount of AFC (per 10^6 spleen cells) ([2]; 45.5 μg/mouse) | Effect on total AFC amount (per spleen) ([2]; 45.5 μg/mouse) | Effect on hemagglutinin titers ([2]; 45.5 μg/mouse) | Spleen index ([2]; 45.5 μg/mouse) | Amount of antibody-forming cells per 10^6 spleen cells ([2]; 91 μg/mouse) | Amount of antibody-forming cells per spleen ([2]; 91 μg/mouse) | Effect on relative amount of AFC (per 10^6 spleen cells) ([2]; 91 μg/mouse) | Effect on total AFC amount (per spleen) ([2]; 91 μg/mouse) | Effect on hemagglutinin titers ([2]; 91 μg/mouse) | Spleen index ([2]; 91 μg/mouse) | Amount of antibody-forming cells per 10^6 spleen cells ([2]; 136.5 μg/mouse) | Amount of antibody-forming cells per spleen ([2]; 136.5 μg/mouse) | Amount of hemagglutinins ([2]; 136.5 μg/mouse) [Log2 T] | Spleen index ([2]; 136.5 μg/mouse) | Immunogenic activity ([2]; 45.5 and 91 μg/mouse) | Effect on hemagglutinin titers ([2]; 136.5 μg/mouse) | other results
CC/C=C\C/C=C\C/C=C\C/C=C\C/C=C\C/C=C\CCC(=O)N[C@@H](COP(=O)(O)O)C(=O)O [Compound 10, N-(cis-4,7,10,13,16,19-docosahexaenoyl)-O-phospho-L-serine] | 326.2±65.4 cells per 10^6 spleen cells | 34.7±8.5 × 10^3 | 304.9±46.6 cells per 10^6 spleen cells | 30.2±5.7 × 10^3 | +11.6 p > 0.05% | −3.5 p > 0.05% | +11.4 p > 005% | 6.9 ± 0.2 10^−3 | 326.2±65.4 cells per 10^6 spleen cells | 34.7±8.5 × 10^3 | +19.4 p > 0.05% | +10.9 p > 0.05% | +11.4 p > 005% | 6.6 ± 0.4 10^−3 | 651.6±48.2 cells per 10^6 spleen cells | 81.1±5.8 × 10^3 | 8.5±0.4 | 6.7 ± 0.2 10^−3 | no immunogenic activity |  | 
CC/C=C\C/C=C\C/C=C\C/C=C\C/C=C\CCCC(=O)N[C@@H](COP(=O)(O)O)C(=O)O [Compound 14, N-(cis-5,8,11,14,17-eicosapentaenoyl)-O-phospho-L-serine] | 645.8±64.4 cells per 10^6 spleen cells | 80.8±12.7 × 10^3 | 554.6±52.0 cells per 10^6 spleen cells | 70.8±10.8 × 10^3 | −10.9 p > 0.05% | −1.5 p > 0.05% | −9,7 p > 0.05% | 6.5 ± 0.2 10^−3 | 645.8±64.4 cells per 10^6 spleen cells | 80.8±12.7 × 10^3 | +3.8 p > 0.05% | +12.4 p > 0.05% | −2,8 p > 0.05% | 6.2 ± 0.2 10^−3 | 946.1±41.9 cells per 10^6 spleen cells | 108.6±10.8 × 10^3 |  | 6.5 ± 0.3 10^−3 | no immunogenic activity | 0% | immunostimulating action ([2]; 136.5 μg/mouse): marked immunostimulating action
CC1=C(/C=C/C(C)=C/C=C/C(C)=C\C(=O)N[C@@H](COP(=O)(O)O)C(=O)O)C(C)(C)CCC1 (stereo in doubt) [Compound 2a, N-(13-cis-Retinoyl)-O-phospho-L-serine] |  |  | 264.5±19.9 cells per 10^6 spleen cells | 34.0±2.6 × 10^3 | −12.8 p > 0.05% | −15.0 p > 0.05% | −7.7 p > 0.05% | 6.4 ± 0.2 10^−3 | 585.6±51.6 cells per 10^6 spleen cells | 59.4±5.2 × 10^3 |  |  | −3.8 p > 0.05% | 6.5 ± 0.2 10^−3 | 639.8±54.6 cells per 10^6 spleen cells | 68.3±6.1 × 10^3 |  | 7.4 ± 0.4 10^−3 |  | +5.1 p > 0.05% | relative amount of AFC ([1]; 45.5 μg/mouse i.v.): 264.5±19.9 cells per 10^6 spleen cells; total AFC amount ([1]; 45.5 μg/mouse i.v.): 34.0±2.6 × 10^3; Immunogenic activity ([2]; 45.5 μg/mouse): no immunogenic activity; immunostimulating effect in vivo in micelle form ([2]; 91 μg/mouse): display immunostimulating effect in vivo; immunostimulating action ([2]; 91 and 136.5 μg/mouse): marked immunostimulating action
CC1=C(/C=C/C(C)=C/C=C/C(C)=C/C(=O)N[C@H](C(=O)O)[C@@H](C)OP(=O)(O)O)C(C)(C)CCC1 (relative stereo) [Compound 3, N-(all-trans-Retinoyl)-O-phospho-L-threonine] |  |  | 472.2±52.4 cells per 10^6 spleen cells | 44.6±3.9 × 10^3 | +15.9 p > 00.05% | +10.1 p > 0.05% | +4.8 p > 0.05% | 6.1 ± 0.3 10^−3 | 827.7±34.6 cells per 10^6 spleen cells | 60.3±4.1 × 10^3 |  |  |  | 6.2 ± 0.2 10^−3 | 961.3±56.5 cells per 10^6 spleen cells | 107.0±8.5 × 10^3 | 8.7±0.3 | 6.8 ± 0.3 10^−3 |  |  | Immunogenic activity ([1]; 45.5 μg/mouse): no immunogenic activity; also recorded: do not inhibit immunogenic activity; relative amount of AFC ([1]; 45.5 μg/mouse i.v.): 472.2±52.4 cells per 10^6 spleen cells; total AFC amount ([1]; 45.5 μg/mouse i.v.): 44.6±3.9 × 10^3; Immunogenic activity ([2]; 45.5 μg/mouse): no immunogenic activity; immunostimulating effect in vivo in micelle form ([2]; 91 μg/mouse): display immunostimulating effect in vivo; Amount of hemagglutinins ([2]; 91 μg/mouse): 8.0±0.3 Log2 T; immunostimulating action ([2]; 91 and 136.5 μg/mouse): high immunostimulating action
